Reference: patent US20240132484A1, “BROAD SPECTRUM ANTIVIRAL COMPOUNDS TARGETING THE SKI COMPLEX” (priority 2020, published 2024)
Several values for one entry are separate records, joined by “and”; a condition that tells them apart may be missing. Equal values may be shown once. Entries after “also recorded” stand apart in the source; their conditions may differ. Read-outs that look alike come from different tables or passages of the source.

Tests used:
SARS2 = format: cell-based, SARS-CoV-2; details: for Infection Data, Average, Mean percentage infection relative to DMSO control: Average of Exp 1 (SMW491) and Exp 2 (SMW492); for Infection Data, Percentage Infection Relative to Appropriate DMSO Control: single well; for Infection Data, Percentage Infection Relative to Appropriate DMSO Control / Infection Data: Percentage Infection Relative to Appropriate DMSO Control: avg background subtraction; for Percentage Inhibition Average 1 μM / Screening data (Relative infection to DMSO controls) Average 1 μM: SARS2, 1 μM; for Screening data (Relative infection to DMSO controls) Average 1 μM / Screening data (Relative infection to DMSO controls) Average 5 μM / Screening data (Relative infection to DMSO controls) Average 10 μM / Screening data (Relative infection to DMSO controls) Average 25 μM / Screening data (Relative infection to DMSO controls) Average 50 μM / Average (relative infection to DMSO over the 5 tested concentrations): 100=DMSO control; for Percentage Inhibition Average 5 μM / Screening data (Relative infection to DMSO controls) Average 5 μM: SARS2, 5 μM; for Percentage Inhibition Average 10 μM / Screening data (Relative infection to DMSO controls) Average 10 μM: SARS2, 10 μM; for Percentage Inhibition Average 25 μM / Screening data (Relative infection to DMSO controls) Average 25 μM: SARS2, 25 μM; for Percentage Inhibition Average 50 μM / Screening data (Relative infection to DMSO controls) Average 50 μM: SARS2, 50 μM; for Average (relative infection to DMSO over the 5 tested concentrations): SARS2, average over 1 to 50 uM; for Infection Data: Percentage Infection Relative to Appropriate DMSO Control: replicate wells; for Infection Data: Average, Mean: average of Exp 1-3 (SMW475, SMW477, SMW478), n 9
cells (nuclei count) = details: for Relative cell count to DMSO controls, Average 1 μM / Relative cell count to DMSO controls, Average 5 μM / Relative cell count to DMSO controls, Average 10 μM / Relative cell count to DMSO controls, Average 25 μM / Relative cell count to DMSO controls, Average 50 μM: toxicity data, 100=DMSO control; for Toxicity Data, Average, Mean percentage relative to DMSO control: Average of Exp 1 (SMW491) and Exp 2 (SMW492); for Toxicity Data, Percentage Relative to Appropriate DMSO Control: single well; for Relative cell count to DMSO controls, Average (for correlation analysis): average value over the 5 tested concentrations (1 to 50 uM); for Toxicity Data: Average, Mean: average of Exp 1-3 (SMW475, SMW477, SMW478), n 9

COc1ccc(CNCCc2ccccc2F)c(OCC(O)CN2CCN(C)CC2)c1 (stereo not shown) [SILCS45]
SARS2 antiviral activity (SARS2): improved activity over SILCS41; also recorded: improved properties over SILCS46
Infection Data, Average, Mean percentage infection relative to DMSO control (SARS2; n=4, 1 uM): 54.68%
Infection Data, Average, Mean percentage infection relative to DMSO control (SARS2; n=4, 5 uM): −1.00%
Infection Data, Average, Mean percentage infection relative to DMSO control (SARS2; n=4, 10 uM): 3.88%
Infection Data, Average, Mean percentage infection relative to DMSO control (SARS2; n=4, 25 uM): −1.28%
Infection Data, Average, Mean percentage infection relative to DMSO control (SARS2; n=4, 50 uM): 3.57%
Infection Data, Percentage Infection Relative to Appropriate DMSO Control (SARS2; Exp 1 (SMW491), 1 uM): 102.92% and 112.49%
Infection Data, Percentage Infection Relative to Appropriate DMSO Control (SARS2; Exp 1 (SMW491), 5 uM): −1.31% and −0.48%
Infection Data, Percentage Infection Relative to Appropriate DMSO Control (SARS2; Exp 1 (SMW491), 10 uM): 0.12% and −3.09%
Infection Data, Percentage Infection Relative to Appropriate DMSO Control (SARS2; Exp 1 (SMW491), 25 uM): −0.41% and −2.68%
Infection Data, Percentage Infection Relative to Appropriate DMSO Control (SARS2; Exp 1 (SMW491), 50 uM): 1.17% and −2.53%
Infection Data, Percentage Infection Relative to Appropriate DMSO Control (SARS2; Exp 2 (SMW492), 1 uM): 3.72% and −0.43%
Infection Data, Percentage Infection Relative to Appropriate DMSO Control (SARS2; Exp 2 (SMW492), 5 uM): −2.43% and 0.22%
Infection Data, Percentage Infection Relative to Appropriate DMSO Control (SARS2; Exp 2 (SMW492), 10 uM): 7.69% and 10.80%
Infection Data, Percentage Infection Relative to Appropriate DMSO Control (SARS2; Exp 2 (SMW492), 25 uM): 0.00% and −2.03%
Infection Data, Percentage Infection Relative to Appropriate DMSO Control (SARS2; Exp 2 (SMW492), 50 uM): 7.94% and 7.68%
Percentage Inhibition Average 1 μM (SARS2): 45.32%
Screening data (Relative infection to DMSO controls) Average 1 μM (SARS2): 54.68
Percentage Inhibition Average 5 μM (SARS2): 101.00%
Screening data (Relative infection to DMSO controls) Average 5 μM (SARS2): −1.00
Percentage Inhibition Average 10 μM (SARS2): 96.12%
Screening data (Relative infection to DMSO controls) Average 10 μM (SARS2): 3.88
Percentage Inhibition Average 25 μM (SARS2): 101.28%
Screening data (Relative infection to DMSO controls) Average 25 μM (SARS2): −1.28
Percentage Inhibition Average 50 μM (SARS2): 96.43%
Screening data (Relative infection to DMSO controls) Average 50 μM (SARS2): 3.57
Average (relative infection to DMSO over the 5 tested concentrations) (SARS2): 11.97
SARS2 antiviral activity (SARS2; listed as D45): more potent than D46
Relative cell count to DMSO controls, Average 1 μM (cells (nuclei count)): 116.96
Relative cell count to DMSO controls, Average 5 μM (cells (nuclei count)): 123.47
Relative cell count to DMSO controls, Average 10 μM (cells (nuclei count)): 131.34
Relative cell count to DMSO controls, Average 25 μM (cells (nuclei count)): 119.79
Relative cell count to DMSO controls, Average 50 μM (cells (nuclei count)): 125.46
Toxicity Data, Average, Mean percentage relative to DMSO control (cells (nuclei count); n=4, 1 uM): 116.96%
Toxicity Data, Average, Mean percentage relative to DMSO control (cells (nuclei count); n=4, 5 uM): 123.47%
Toxicity Data, Average, Mean percentage relative to DMSO control (cells (nuclei count); n=4, 10 uM): 131.34%
Toxicity Data, Average, Mean percentage relative to DMSO control (cells (nuclei count); n=4, 25 uM): 119.79%
Toxicity Data, Average, Mean percentage relative to DMSO control (cells (nuclei count); n=4, 50 uM): 125.46%
Toxicity Data, Percentage Relative to Appropriate DMSO Control (cells (nuclei count); Exp 1 (SMW491), 1 uM): 94% and 101%
Toxicity Data, Percentage Relative to Appropriate DMSO Control (cells (nuclei count); Exp 1 (SMW491), 5 uM): 121% and 114%
Toxicity Data, Percentage Relative to Appropriate DMSO Control (cells (nuclei count); Exp 1 (SMW491), 10 uM): 111% and 127%
Toxicity Data, Percentage Relative to Appropriate DMSO Control (cells (nuclei count); Exp 1 (SMW491), 25 uM): 95% and 123%
Toxicity Data, Percentage Relative to Appropriate DMSO Control (cells (nuclei count); Exp 1 (SMW491), 50 uM): 129% and 121%
Toxicity Data, Percentage Relative to Appropriate DMSO Control (cells (nuclei count); Exp 2 (SMW492), 1 uM): 139% and 133%
Toxicity Data, Percentage Relative to Appropriate DMSO Control (cells (nuclei count); Exp 2 (SMW492), 5 uM): 133% and 126%
Toxicity Data, Percentage Relative to Appropriate DMSO Control (cells (nuclei count); Exp 2 (SMW492), 10 uM): 137% and 151%
Toxicity Data, Percentage Relative to Appropriate DMSO Control (cells (nuclei count); Exp 2 (SMW492), 25 uM): 135% and 127%
Toxicity Data, Percentage Relative to Appropriate DMSO Control (cells (nuclei count); Exp 2 (SMW492), 50 uM): 126%
Relative cell count to DMSO controls, Average (for correlation analysis) (cells (nuclei count)): 123.40

Cc1cc(CN(CCN(C)C)Cc2ccncc2)sc1Br [SILCS14]
Infection Data: Percentage Infection Relative to Appropriate DMSO Control (SARS2; 1 uM, Exp 1 (SMW475)): 112.00% and 92.09% and 122.87%
Infection Data: Percentage Infection Relative to Appropriate DMSO Control (SARS2; 1 uM, Exp 2 (SMW477)): 91.97% and 93.96% and 99.35%
Infection Data: Percentage Infection Relative to Appropriate DMSO Control (SARS2; 1 uM, Exp 3 (SMW478)): 112.26% and 106.71% and 118.52%
Infection Data: Average, Mean (SARS2; 1 uM): 105.53%
Infection Data: Percentage Infection Relative to Appropriate DMSO Control (SARS2; 5 uM, Exp 1 (SMW475)): 112.88% and 98.55% and 115.50%
Infection Data: Percentage Infection Relative to Appropriate DMSO Control (SARS2; 5 uM, Exp 2 (SMW477)): 105.78% and 98.21% and 86.55%
Infection Data: Percentage Infection Relative to Appropriate DMSO Control (SARS2; 5 uM, Exp 3 (SMW478)): 109.15% and 113.38% and 106.22%
Infection Data: Average, Mean (SARS2; 5 uM): 105.13%
Infection Data: Percentage Infection Relative to Appropriate DMSO Control (SARS2; 10 uM, Exp 1 (SMW475)): 92.53% and 120.55% and 101.62%
Infection Data: Percentage Infection Relative to Appropriate DMSO Control (SARS2; 10 uM, Exp 2 (SMW477)): 84.89% and 81.65% and 69.99%
Infection Data: Percentage Infection Relative to Appropriate DMSO Control (SARS2; 10 uM, Exp 3 (SMW478)): 92.27% and 101.81% and 99.27%
Infection Data: Average, Mean (SARS2; 10 uM): 93.84%
Infection Data: Percentage Infection Relative to Appropriate DMSO Control (SARS2; 25 uM, Exp 1 (SMW475)): 11.84% and 13.81% and 11.60%
Infection Data: Percentage Infection Relative to Appropriate DMSO Control (SARS2; 25 uM, Exp 2 (SMW477)): 19.70% and 19.93% and 22.53%
Infection Data: Percentage Infection Relative to Appropriate DMSO Control (SARS2; 25 uM, Exp 3 (SMW478)): 9.11% and 11.10% and 12.21%
Infection Data: Average, Mean (SARS2; 25 uM): 14.65%
Infection Data: Percentage Infection Relative to Appropriate DMSO Control (SARS2; 50 uM, Exp 1 (SMW475)): 2.09% and 3.52% and 1.22%
Infection Data: Percentage Infection Relative to Appropriate DMSO Control (SARS2; 50 uM, Exp 2 (SMW477)): 1.91% and −0.25% and −0.24%
Infection Data: Percentage Infection Relative to Appropriate DMSO Control (SARS2; 50 uM, Exp 3 (SMW478)): 3.06% and 0.62% and 3.25%
Infection Data: Average, Mean (SARS2; 50 uM): 1.69%
Percentage Inhibition Average 1 μM (SARS2): −5.53%
Screening data (Relative infection to DMSO controls) Average 1 μM (SARS2): 105.53
Percentage Inhibition Average 5 μM (SARS2): −5.13%
Screening data (Relative infection to DMSO controls) Average 5 μM (SARS2): 105.13
Percentage Inhibition Average 10 μM (SARS2): 6.16%
Screening data (Relative infection to DMSO controls) Average 10 μM (SARS2): 93.84
Percentage Inhibition Average 25 μM (SARS2): 85.35%
Screening data (Relative infection to DMSO controls) Average 25 μM (SARS2): 14.65
Percentage Inhibition Average 50 μM (SARS2): 98.31%
Screening data (Relative infection to DMSO controls) Average 50 μM (SARS2): 1.69
Average (relative infection to DMSO over the 5 tested concentrations) (SARS2): 64.17
Toxicity Data: Average, Mean (cells (nuclei count); 1 uM): 105.49%
Relative cell count to DMSO controls, Average 1 μM (cells (nuclei count)): 105.49
Toxicity Data: Average, Mean (cells (nuclei count); 5 uM): 103.93%
Relative cell count to DMSO controls, Average 5 μM (cells (nuclei count)): 103.93
Toxicity Data: Average, Mean (cells (nuclei count); 10 uM): 108.29%
Relative cell count to DMSO controls, Average 10 μM (cells (nuclei count)): 108.29
Toxicity Data: Average, Mean (cells (nuclei count); 25 uM): 139.75%
Relative cell count to DMSO controls, Average 25 μM (cells (nuclei count)): 139.75
Toxicity Data: Average, Mean (cells (nuclei count); 50 uM): 16.80%
Relative cell count to DMSO controls, Average 50 μM (cells (nuclei count)): 16.8
Relative cell count to DMSO controls, Average (for correlation analysis) (cells (nuclei count)): 94.85
